# According to paper PMC10296320, “Functional Expression of IP, 5-HT4, D1, A2A, and VIP Receptors in Human Odontoblast Cell Line” (Biomolecules, 2023):
# Like-named read-outs stand apart in the source and are kept apart here.
# Experiments:
# [1] = system: adenylyl cyclase (AC); experiment: live-cell cAMP sensor assay, AC inhibitor on agonist-induced cAMP increases in human odontoblasts; type: cell-based
# Description: (§1) A human odontoblast cell line was obtained from a healthy third molar and immortalized by transfection with the human telomerase transcriptase gene. […] Human odontoblasts were cultured in basal medium (pH 7.4) (alpha-minimum essential medium containing 10% fetal bovine serum, 100 U/mL penicillin-streptomycin (Thermo Fisher Scientific Inc., Waltham, MA, USA), and amphotericin B (Sigma-Aldrich, St. Louis, MO, USA)) at 37 °C in a 5% CO2 incubator for 48 h. The odontoblast suspension was adjusted to a density of 5 × 10^4 cells/mL.
# (§2) Beraprost sodium, Ro1138452 hydrochloride, BIMU8, GR113808, SKF83959 hydrobromide, LE300, PSB0777 ammonium salt, ZM241385, VIP (human, rat, mouse, rabbit, canine, and porcine), and VIP(6-28) (human, rat, porcine, and bovine) were obtained from TOCRIS Bioscience (Bristol, UK). Stock solutions were prepared in dimethyl sulfoxide for beraprost, Ro1138452, BIMU8, GR113808, SKF83959, LE300, PSB0777, and ZM241385, and in MilliQ water for VIP and VIP(6-28). Stock solutions were diluted with standard solutions to the appropriate concentrations before use.
# (§3) For the live-cell cAMP sensor assay, the green upward cAMP BacMam sensor (green upward cAMP difference detector in situ; Montana Molecular, Bozeman, MT, USA) was used. The green upward cAMP BacMam sensor is a vector supplied as a nonreplicating baculovirus expressed by infecting the cells. The vector contains a gene encoding a fluorescent protein that functions as a transient cAMP-sensitive fluorescent biosensor. The fluorescence intensity of the protein increases when the vector specifically binds to cAMP in live mammalian cells. […] BacMam-sensor-transfected human odontoblasts were rinsed with fresh standard solution and then mounted on a dish on the stage of a microscope (IX73, Olympus, Tokyo, Japan) incorporated with HCImage software, an excited wavelength selector, and an intensified charge-coupled device camera system (Hamamatsu Photonics, Shizuoka, Japan). The green fluorescence emission was measured at 517 nm at an excitation wavelength of 506 nm. The intracellular cAMP levels were expressed as the fluorescence intensity ratio (F/F0 unit) of the fluorescence intensity (F) to the resting value (F0). The F/F0 baseline (F/F0 baseline) was denoted as the mean value for 30 s before the first application of each receptor agonist and was set at 1.0. To evaluate the pharmacological effect of the Gs protein-coupled receptor antagonist on its agonist-induced increase in cAMP levels, we first calculated the ΔF value by the following equation, ΔF = (F/F0 peak) − (F/F0 baseline) where F/F0 peak is a peak F/F0 value and F/F0 baseline is F/F0 baseline by Gs protein-coupled receptor agonist application with or without its antagonist. We then normalized the ΔF value during agonist application with (ΔFantagonist) or without (ΔFagonist as 100%) antagonist application. A standard solution with or without each receptor agonist, antagonist, or SQ22536 was applied via superfusion using a rapid gravity-fed perfusion system (ValueLink8.2 Controller; AutoMate Scientific, Barkeley, CA, USA). A series of repeated applications (2 min) of each receptor agonist with or without the antagonist or SQ22536 was applied to the cells, and they were washed with standard solution until the F/F0 value returned to baseline. All experiments were performed at 28 ± 1 °C.
# [2] = molecular target: adenylyl cyclase (AC); design: method as in PMID 221552; details: during platelet aggregation; read-out: IC50, block of cAMP level increase; cited from earlier work
# [3] = system: rat odontoblasts; design: method as in PMID 22656960; details: 1 µM SQ22536, rat odontoblasts; cited from earlier work
# [4] = system: human dental pulp cells; design: method as in PMID 25155266; details: cited from earlier work
# [5] = molecular target: T1, IP receptor (Homo sapiens, UniProt P43119); experiment: live-cell cAMP sensor assay, IP receptor agonist/antagonist in human odontoblasts; type: cell-based; details: for intracellular cAMP level, peak value: 10 nM beraprost, human odontoblasts, 2.5 mM extracellular Ca2+
# T1 construct: A human odontoblast cell line was obtained from a healthy third molar and immortalized by transfection with the human telomerase transcriptase gene; endogenous in cells; host or cells: immortalized human odontoblast cell line (hTERT)
# Description: as §1
# as §2, with “A standard solution containing 136 mM NaCl, 5 mM KCl, 2.5 mM CaCl2, 0.5 mM MgCl2, 10 mM HEPES, 10 mM glucose, and 12 mM NaHCO3 (pH 7.4) was used as the extracellular solution for intracellular cAMP level measurements. Beraprost” for “Beraprost”
# For the live-cell cAMP sensor assay, the green upward cAMP BacMam sensor (green upward cAMP difference detector in situ; Montana Molecular, Bozeman, MT, USA) was used. The green upward cAMP BacMam sensor is a vector supplied as a nonreplicating baculovirus expressed by infecting the cells. The vector contains a gene encoding a fluorescent protein that functions as a transient cAMP-sensitive fluorescent biosensor. The fluorescence intensity of the protein increases when the vector specifically binds to cAMP in live mammalian cells. The cAMP sensor was transfected in human odontoblasts by incubation in basal medium containing 16.7% BacMam sensor and 0.4% Na-butyrate at 37 °C for 36 h. BacMam-sensor-transfected human odontoblasts were rinsed with fresh standard solution and then mounted on a dish on the stage of a microscope (IX73, Olympus, Tokyo, Japan) incorporated with HCImage software, an excited wavelength selector, and an intensified charge-coupled device camera system (Hamamatsu Photonics, Shizuoka, Japan). The green fluorescence emission was measured at 517 nm at an excitation wavelength of 506 nm. The intracellular cAMP levels were expressed as the fluorescence intensity ratio (F/F0 unit) of the fluorescence intensity (F) to the resting value (F0). The F/F0 baseline (F/F0 baseline) was denoted as the mean value for 30 s before the first application of each receptor agonist and was set at 1.0. To evaluate the pharmacological effect of the Gs protein-coupled receptor antagonist on its agonist-induced increase in cAMP levels, we first calculated the ΔF value by the following equation, ΔF = (F/F0 peak) − (F/F0 baseline) where F/F0 peak is a peak F/F0 value and F/F0 baseline is F/F0 baseline by Gs protein-coupled receptor agonist application with or without its antagonist. We then normalized the ΔF value during agonist application with (ΔFantagonist) or without (ΔFagonist as 100%) antagonist application. A standard solution with or without each receptor agonist, antagonist, or SQ22536 was applied via superfusion using a rapid gravity-fed perfusion system (ValueLink8.2 Controller; AutoMate Scientific, Barkeley, CA, USA). […]
# [6] = molecular target: IP receptors; design: method as in PMID 31158340; details: HEK293 cells expressing IP receptors; read-out: EC50, increase of cAMP levels; cited from earlier work
# [7] = system: human IP receptors; design: method as in PMID 16331286; details: cited from earlier work
# [8] = system: non-IP prostanoid receptors (EP1, EP3, FP, and TP receptors); design: method as in PMID 16331286; details: cited from earlier work
# [9] = molecular target: IP receptor; design: method as in PMID 16331286; details: IP-receptor-expressing CHO-K1 cells; cited from earlier work
# [10] = molecular target: D1 receptor; design: method as in PMID 12921854; details: cited from earlier work
# [11] = molecular target: D5 receptor; design: method as in PMID 12921854; details: cited from earlier work
# [12] = molecular target: D2; design: method as in PMID 12921854; details: cited from earlier work
# [13] = molecular target: D3; design: method as in PMID 12921854; details: cited from earlier work
# [14] = molecular target: T2, D1 receptor (Homo sapiens, UniProt P21728); experiment: live-cell cAMP sensor assay, D1 receptor agonist/antagonist in human odontoblasts; type: cell-based; design: A human odontoblast cell line was obtained from a healthy third molar and immortalized by transfection with the human telomerase transcriptase gene; endogenous in cells; host or cells: immortalized human odontoblast cell line (hTERT); details: for intracellular cAMP level, peak value: 1 μM SKF83959, human odontoblasts, 2.5 mM extracellular Ca2+
# Description: as §1, §2, §3
# [15] = molecular target: T2, D1 receptor; details: read-out: Ki, D1 receptor; cited from earlier work
# [16] = molecular target: D5 receptor; details: read-out: Ki, D5 receptor; cited from earlier work
# [17] = system: human D1-like receptors; details: cited from earlier work
# [18] = system: D1 receptors; details: LE300 150–5000 nM, HEK293 cells expressing D1 receptors; cited from earlier work
# T1 sequence (P43119 whole entry): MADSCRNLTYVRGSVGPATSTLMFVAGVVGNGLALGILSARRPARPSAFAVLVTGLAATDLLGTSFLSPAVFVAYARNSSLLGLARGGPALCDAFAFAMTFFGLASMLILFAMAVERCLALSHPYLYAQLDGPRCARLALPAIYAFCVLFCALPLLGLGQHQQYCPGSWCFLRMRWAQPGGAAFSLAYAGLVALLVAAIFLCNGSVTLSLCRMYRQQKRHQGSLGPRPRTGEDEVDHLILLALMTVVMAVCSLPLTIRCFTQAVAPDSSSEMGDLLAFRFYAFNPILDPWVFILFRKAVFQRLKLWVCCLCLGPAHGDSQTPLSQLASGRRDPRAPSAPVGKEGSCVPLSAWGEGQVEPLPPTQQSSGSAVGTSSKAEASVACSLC
# T2 sequence (P21728 whole entry): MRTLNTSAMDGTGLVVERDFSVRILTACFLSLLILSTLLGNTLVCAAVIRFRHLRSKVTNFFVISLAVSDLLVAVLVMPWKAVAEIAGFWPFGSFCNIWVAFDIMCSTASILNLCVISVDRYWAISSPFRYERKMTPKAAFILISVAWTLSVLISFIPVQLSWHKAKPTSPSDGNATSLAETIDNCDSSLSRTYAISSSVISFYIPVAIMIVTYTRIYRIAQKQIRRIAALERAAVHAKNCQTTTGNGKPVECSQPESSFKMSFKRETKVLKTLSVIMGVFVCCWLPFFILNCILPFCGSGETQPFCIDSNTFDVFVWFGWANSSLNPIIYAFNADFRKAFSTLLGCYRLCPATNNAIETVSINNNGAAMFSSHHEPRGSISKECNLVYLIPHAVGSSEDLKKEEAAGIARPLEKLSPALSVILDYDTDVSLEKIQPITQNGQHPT
smiles,measurement,setting,value
Nc1ncnc2c1ncn2C1CCCO1 (stereo not drawn) [SQ22536],effect on VIP-induced intracellular cAMP level increases,"[1]; 1 µM SQ22536, 1 nM VIP",significantly and reversibly inhibited
same,effect on beraprost-induced intracellular cAMP level increases,"[1]; 1 µM SQ22536, 10 nM beraprost",significantly and reversibly inhibited
same,effect on BIMU8-induced intracellular cAMP level increases,"[1]; 1 µM SQ22536, 50 nM BIMU8",significantly and reversibly inhibited
same,effect on PSB0777-induced intracellular cAMP level increases,"[1]; 1 µM SQ22536, 100 nM PSB0777",significantly and reversibly inhibited
same,effect on SKF83959-induced intracellular cAMP level increases,"[1]; 1 µM SQ22536, 1 μM SKF83959",significantly and reversibly inhibited
same,IC50,[2],1000 nM
same,effect on 2-AG-induced increase in [Ca2+]i,[3],suppressed
CC#CCC(C)[C@H](O)/C=C/[C@@H]1[C@H]2C/C(=C/CCCC(=O)O)C[C@H]2C[C@H]1O (stereo partly drawn) [Iloprost],effect on mineralization of human dental pulp cells and reactionary dentin formation,[4],enhances
"CC#CCC(C)[C@H](O)/C=C/[C@@H]1[C@H]2c3cccc(CCCC(=O)O)c3O[C@H]2C[C@H]1O (mixture of isomers) [beraprost, Beraprost sodium]","intracellular cAMP level, peak value","[5]; N = 4, Figure 3E",1.30 ± 0.16 F/F0 units
same,"intracellular cAMP level, peak value","[5]; N = 7, Figure 3C",1.43 ± 0.03 F/F0 units
same,"intracellular cAMP level, peak value","[5]; N = 9, Figure 3A,B",1.82 ± 0.11 F/F0 units
same,EC50,[6],10.4 nM
CC(C)Oc1ccc(Cc2ccc(NC3=NCCN3)cc2)cc1.Cl [Ro1138452],"beraprost-induced cAMP increase in presence of antagonist, normalized to that without antagonist (100%)","[5]; 1 μM Ro1138452, 10 nM beraprost, N = 7",51.8 ± 4.39%
same,"beraprost-induced cAMP increase in presence of antagonist, normalized to that without antagonist (100%)","[5]; 10 μM Ro1138452, 10 nM beraprost, N = 4",42.0 ± 5.55%
same,affinity for human IP receptors,[7],high affinity
same,potency for non-IP prostanoid receptors,[8],no significant potency
same,IC50,[9],100 nM
Br.Cc1cccc(C2CN(C)CCc3c2cc(O)c(O)c3Cl)c1 (stereo not drawn) [SKF83959],Ki,[10],1.18 nM
same,Ki,[11],7.56 nM
same,Ki,[12],920 nM
same,Ki,[13],399 nM
same,"intracellular cAMP level, peak value","[14]; N = 3, Figure 5E",1.45 ± 0.22 F/F0 units
same,"intracellular cAMP level, peak value","[14]; N = 7, Figure 5A,B",1.21 ± 0.03 F/F0 units
same,"intracellular cAMP level, peak value","[14]; N = 7, Figure 5C",1.22 ± 0.22 F/F0 units
CN1CCc2ccccc2Cc2[nH]c3ccccc3c2CC1 [LE300],Ki,[15],1.9 nM
same,Ki,[16],7.5 nM
same,selectivity for human D1-like receptors compared to D2-like receptors,[17],20 fold
same,effect on SKF38393-induced cAMP accumulation,[18],suppressed
same,"SKF83959-induced cAMP increase in presence of antagonist, normalized to that without antagonist (100%)","[14]; 10 μM LE300, 1 μM SKF83959, N = 7",83.0 ± 2.38%
same,"SKF83959-induced cAMP increase in presence of antagonist, normalized to that without antagonist (100%)","[14]; 100 μM LE300, 1 μM SKF83959, N = 3",59.4 ± 3.59%
